Where two headings read alike, the source gives them in different places.
Test system: Gli1-mediated transcription
Test: Gli1-mediated transcriptional luciferase reporter assay
Type: cell-based
Experimental: Gli1-mediated transcriptional luciferase reporter assay was performed using Shh-LIGHT2 cells in order to evaluate the effects on activation and inhibition of Gli1-mediated transcription by the compounds of the disclosure. Brief assay procedure is provided below. […] Shh-LIGHT2 cells were harvested from about 80% confluent 10-cm dish using 0.25% Trypsin-EDTA solution. Medium was removed, and cells were washed with 5 mL DPBS and aspirated. Then, 1 mL 0.25% Trypsin-EDTA solution was added to a 10-cm dish. The dish was placed in the incubator for 1-3 minutes, or until cells have detached. 3 mL of cell growth medium (DMEM, 10% FBS, 1% PenStrep, 1% sodium pyruvate, and 1% GlutaMax) was added to the 10-cm dish, and the contents were transferred to a conical tube. […] The cell assay plate was removed from incubator after cells reached confluency. The culture medium was then manually removed from the cell plates, and the plates were centrifuged at 200 rpm for 30 seconds. […] After 30 min incubation of antagonist, cells were stimulated with agonist (purmorphamine, 5 μL, 1.5 μM final), then incubate for 24 h at 37° C./5% CO2. […] Luciferase assay: After incubation, the cell assay plate was allowed to acclimate to room temperature. Then, 20 μL of Duo-Glo® Luciferase Reagent (Promega) was added to each well of cell assay plate. The plate was briefly spun down, mixed, and incubated for 30 minutes at room temperature. The cell plate was read using luminometer for firefly luminescence activity. Then, 20 μL of Duo-Glo® Step&Glo® Reagent (Promega) was added to each well of cell assay plate. The plate was briefly spun down, mixed, and incubated for 30 minutes at room temperature. The cell plate was read using luminometer for Renilla luminescence activity. Ratio of firefly: Renilla luminescence was calculated for each well. The compound well ratio was normalized to the ratio from a control well.

[1] = Shh-LIGHT2 cells, antagonist mode, purmorphamine 1.5 μM stimulation, 24 h, firefly luminescence, read-out: Gli1 IC50 firefly
[2] = Shh-LIGHT2 cells, antagonist mode, purmorphamine 1.5 μM stimulation, 24 h, ratio of firefly:Renilla luminescence, read-out: Gli1 IC50 firefly:Renilla ratio

With `COc1ccc2c(c1)CCC(N1CCc3nc(-c4ccccc4F)[nH]c3C1)C2` (centres unmarked) [Example 7, 2-(2-fluorophenyl)-5-(6-methoxy-1,2,3,4-tetrahydronaphthalen-2-yl)-4,5,6,7-tetrahydro-3H-imidazo[4,5-c]pyridine] the IC50 [1] was 1000 to 50000 nM and the IC50 [2] was 1000 to 50000 nM.

For `Clc1ccc2c(c1)CC(N1CCc3nc(-c4ccccc4Cl)[nH]c3C1)CC2` (centres unmarked) [Example 13, 5-(7-chloro-1,2,3,4-tetrahydronaphthalen-2-yl)-2-(2-chlorophenyl)-4,5,6,7-tetrahydro-3H-imidazo[4,5-c]pyridine], the IC50 [1] was 100 to 490 nM and the IC50 [2] was 100 to 490 nM.

Work on `Clc1ccc2c(c1)CC(N1CCc3nc(-c4ccccc4Cl)[nH]c3C1)CO2` (centres unmarked) [Example 3, 5-(6-chlorochroman-3-yl)-2-(2-chlorophenyl)-4,5,6,7-tetrahydro-3H-imidazo[4,5-c]pyridine] yielded an IC50 [1] of 500 to 990 nM and an IC50 [2] of 500 to 990 nM.

Work on `Fc1cccc(-c2nc3c([nH]2)CN(C2CCc4ccc(F)cc4C2)CC3)c1` (centres unmarked) [Example 51, 5-(7-fluoro-1,2,3,4-tetrahydronaphthalen-2-yl)-2-(3-fluorophenyl)-4,5,6,7-tetrahydro-3H-imidazo[4,5-c]pyridine] yielded an IC50 [1] of 1000 to 50000 nM and an IC50 [2] of 1000 to 50000 nM.

`Clc1ccc2c(c1)CC(N1CCc3nc(-c4ccccc4Cl)[nH]c3C1)C2` (centres unmarked) [Example 19, 5-(5-chloro-2,3-dihydro-1H-inden-2-yl)-2-(2-chlorophenyl)-4,5,6,7-tetrahydro-3H-imidazo[4,5-c]pyridine] gave an IC50 [1] of 100 to 490 nM and an IC50 [2] of 100 to 490 nM.

`Clc1cccc(-c2nc3c([nH]2)CN(C2CCc4ccc(Cl)cc4C2)CC3)c1` (centres unmarked) [Example 42, 5-(7-chloro-1,2,3,4-tetrahydronaphthalen-2-yl)-2-(3-chlorophenyl)-4,5,6,7-tetrahydro-3H-imidazo[4,5-c]pyridine] was tested, and the IC50 [1] was 1000 to 50000 nM and the IC50 [2] was 1000 to 50000 nM.

For `Clc1ccccc1-c1nc2c([nH]1)CN([C@H]1CCc3cccc(Cl)c3C1)CC2` [Example 1-S, (S)-5-(8-chloro-1,2,3,4-tetrahydronaphthalen-2-yl)-2-(2-chlorophenyl)-4,5,6,7-tetrahydro-3H-imidazo[4,5-c]pyridine], the IC50 [1] was 100 to 490 nM and the IC50 [2] was 100 to 490 nM.

For `OC1c2c(Cl)cccc2CCC1N1CCc2nc(-c3ccccc3Cl)[nH]c2C1` (centres unmarked) [Example 14, 8-chloro-2-(2-(2-chlorophenyl)-3,4,6,7-tetrahydro-5H-imidazo[4,5-c]pyridin-5-yl)-1,2,3,4-tetrahydronaphthalen-1-ol], the IC50 [1] was 1000 to 50000 nM and the IC50 [2] was 1000 to 50000 nM.

With `Cn1c(-c2ccccc2Cl)nc2c1CC(N1Cc3cccc(Cl)c3C1)CC2` (centres unmarked) [Example 189, 6-(4-chloroisoindolin-2-yl)-2-(2-chlorophenyl)-1-methyl-4,5,6,7-tetrahydro-1H-benzo[d]imidazole] the IC50 [1] was < 100 nM and the IC50 [2] was < 100 nM.

Compound `Fc1ccccc1-c1nc2c([nH]1)CN(C1CCc3cccc(F)c3C1)CC2` (centres unmarked) [Example 11, 5-(8-fluoro-1,2,3,4-tetrahydronaphthalen-2-yl)-2-(2-fluorophenyl)-4,5,6,7-tetrahydro-3H-imidazo[4,5-c]pyridine] has an IC50 [1] of 1000 to 50000 nM and an IC50 [2] of 1000 to 50000 nM.

With `Cn1c(-c2ccccc2Cl)nc2c1CN(C1CCc3cccc(C4CC4)c3C1)CC2` (centres unmarked) [Example 161, 2-(2-chlorophenyl)-5-(8-cyclopropyl-1,2,3,4-tetrahydronaphthalen-2-yl)-3-methyl-4,5,6,7-tetrahydro-3H-imidazo[4,5-c]pyridine] the IC50 [1] was 100 to 490 nM and the IC50 [2] was 100 to 490 nM.

Work on `Clc1ccccc1-c1nc2c([nH]1)CN(C1CCc3ccc(C4CC4)cc3C1)CC2` (centres unmarked) [Example 34, 2-(2-chlorophenyl)-5-(7-cyclopropyl-1,2,3,4-tetrahydronaphthalen-2-yl)-4,5,6,7-tetrahydro-3H-imidazo[4,5-c]pyridine] yielded an IC50 [1] of 100 to 490 nM and an IC50 [2] of 100 to 490 nM.

`COc1ccc(Cl)c(-c2nc3c([nH]2)CN(C2CCc4ccc(Cl)cc4C2)CC3)c1` (centres unmarked) [Example 24, 5-(7-chloro-1,2,3,4-tetrahydronaphthalen-2-yl)-2-(2-chloro-5-methoxyphenyl)-4,5,6,7-tetrahydro-3H-imidazo[4,5-c]pyridine] was tested, and the IC50 [1] was 100 to 490 nM and the IC50 [2] was < 100 nM.

`COc1ccc2c(c1)CC(N1CCc3nc(-c4ccccc4F)[nH]c3C1)CC2` (centres unmarked) [Example 8, 2-(2-fluorophenyl)-5-(7-methoxy-1,2,3,4-tetrahydronaphthalen-2-yl)-4,5,6,7-tetrahydro-3H-imidazo[4,5-c]pyridine] showed an IC50 [1] of 1000 to 50000 nM and an IC50 [2] of 1000 to 50000 nM.

In the case of `Clc1ccc2c(c1)CC(N1CCc3nc(-c4ccc(Br)cc4Cl)[nH]c3C1)CC2` (centres unmarked) [Example 29, 2-(4-bromo-2-chlorophenyl)-5-(7-chloro-1,2,3,4-tetrahydronaphthalen-2-yl)-4,5,6,7-tetrahydro-3H-imidazo[4,5-c]pyridine], the IC50 [1] is reported as 500 to 990 nM and the IC50 [2] is reported as 100 to 490 nM.

`COc1cccc2c1CCC(N1CCc3nc(-c4ccccc4Cl)[nH]c3C1)C2` (centres unmarked) [Example 10, 2-(2-chlorophenyl)-5-(5-methoxy-1,2,3,4-tetrahydronaphthalen-2-yl)-4,5,6,7-tetrahydro-3H-imidazo[4,5-c]pyridine] showed an IC50 [1] of 100 to 490 nM and an IC50 [2] of 100 to 490 nM.

For `Fc1cc(F)c2c(c1)CC(N1CCc3nc(-c4ccccc4F)[nH]c3C1)CC2` (centres unmarked) [Example 73, 5-(5,7-difluoro-1,2,3,4-tetrahydronaphthalen-2-yl)-2-(2-fluorophenyl)-4,5,6,7-tetrahydro-3H-imidazo[4,5-c]pyridine], the IC50 [1] was > 30000 nM and the IC50 [2] was > 30000 nM.

`Clc1ccccc1-c1nc2c([nH]1)CN(C1Cc3ccccc3C1)CC2` [Example 2, 2-(2-chlorophenyl)-5-(2,3-dihydro-1H-inden-2-yl)-4,5,6,7-tetrahydro-3H-imidazo[4,5-c]pyridine] showed an IC50 (Shh Light2, 24 h, read-out: Gli1 IC50 firefly) of 1000 to 50000 nM and an IC50 (Shh Light2, 24 h, read-out: Gli1 IC50 firefly:Renilla ratio) of 1000 to 50000 nM.

Compound `Cn1c(-c2ccc(C3CC3)cc2Cl)nc2c1CCN(C1CCc3ccc(Cl)cc3C1)C2` (centres unmarked) [Example 164, 5-(7-chloro-1,2,3,4-tetrahydronaphthalen-2-yl)-2-(2-chloro-4-cyclopropylphenyl)-1-methyl-4,5,6,7-tetrahydro-1H-imidazo[4,5-c]pyridine] has an IC50 [1] of 100 to 490 nM and an IC50 [2] of 100 to 490 nM.

With `O[C@@H]1Cc2ccccc2C[C@H]1N1CCc2nc(-c3ccccc3Cl)[nH]c2C1` [Example 20, (2R,3R)-3-(2-(2-chlorophenyl)-3,4,6,7-tetrahydro-5H-imidazo[4,5-c]pyridin-5-yl)-1,2,3,4-tetrahydronaphthalen-2-ol] the IC50 [1] was 1000 to 50000 nM and the IC50 [2] was 1000 to 50000 nM.

In the case of `Clc1ccccc1-c1nc2c([nH]1)CN(C1CCc3cccc(Br)c3C1)CC2` (centres unmarked) [Example 26, 5-(8-bromo-1,2,3,4-tetrahydronaphthalen-2-yl)-2-(2-chlorophenyl)-4,5,6,7-tetrahydro-3H-imidazo[4,5-c]pyridine], the IC50 [1] is reported as < 100 nM and the IC50 [2] is reported as 100 to 490 nM.

Work on `Clc1ccccc1-c1nc2c([nH]1)CN(C1CCc3cc(C4CC4)ccc3C1)CC2` (centres unmarked) [Example 31, 2-(2-chlorophenyl)-5-(6-cyclopropyl-1,2,3,4-tetrahydronaphthalen-2-yl)-4,5,6,7-tetrahydro-3H-imidazo[4,5-c]pyridine] yielded an IC50 [1] of 1000 to 50000 nM and an IC50 [2] of 500 to 990 nM.

For `Clc1cccnc1-c1nc2c([nH]1)CN(C1CCc3cccc(Cl)c3C1)CC2` (centres unmarked) [Example 77, 5-(8-chloro-1,2,3,4-tetrahydronaphthalen-2-yl)-2-(3-chloropyridin-.2-yl)-4,5,6,7-tetrahydro-3H-imidazo[4,5-c]pyndine], the IC50 [1] was 1000 to 50000 nM and the IC50 [2] was 1000 to 50000 nM.

For `COc1cccc2c1CC(N1CCc3nc(-c4ccccc4Cl)[nH]c3C1)CC2` (centres unmarked) [Example 16, 2-(2-chlorophenyl)-5-(8-methoxy-1,2,3,4-tetrahydronaphthalen-2-yl)-4,5,6,7-tetrahydro-3H-imidazo[4,5-c]pyridine], the IC50 [1] was < 100 nM and the IC50 [2] was 100 to 490 nM.

`Clc1ccc2c(c1)CC(N1CCc3nc(-c4cccc(Cl)c4Cl)[nH]c3C1)CC2` (centres unmarked) [Example 21, 5-(7-chloro-1,2,3,4-tetrahydronaphthalen-2-yl)-2-(2,3-dichlorophenyl)-4,5,6,7-tetrahydro-3H-imidazo[4,5-c]pyridine] showed an IC50 [1] of 500 to 990 nM and an IC50 [2] of 500 to 990 nM.

Compound `Fc1ccc(-c2nc3c([nH]2)CN(C2CCc4ccc(Cl)cc4C2)CC3)c(Cl)c1` (centres unmarked) [Example 22, 5-(7-chloro-1,2,3,4-tetrahydronaphthalen-2-yl)-2-(2-chloro-4-fluorophenyl)-4,5,6,7-tetrahydro-3H-imidazo[4,5-c]pyridine] has an IC50 [1] of 500 to 990 nM and an IC50 [2] of 100 to 490 nM.

`Fc1cc2c(cc1F)CC(N1CCc3nc(-c4ccccc4F)[nH]c3C1)CC2` (centres unmarked) [Example 72, 5-(6,7-difluoro-1,2,3,4-tetrahydronaphthalen-2-yl)-2-(2-fluorophenyl)-4,5,6,7-tetrahydro-3H-imidazo[4,5-c]pyridine] gave an IC50 [1] of 1000 to 50000 nM and an IC50 [2] of 1000 to 50000 nM.

`COc1ccc2c(c1)CC(N1CCc3nc(-c4ccccc4Cl)[nH]c3C1)CC2` (centres unmarked) [Example 15, 2-(2-chlorophenyl)-5-(7-methoxy-1,2,3,4-tetrahydronaphthalen-2-yl)-4,5,6,7-tetrahydro-3H-imidazo[4,5-c]pyridine] was tested, and the IC50 [1] was 100 to 490 nM and the IC50 [2] was 100 to 490 nM.
